Values joined by “and” are separate entries in the source; they are usually repeats but may differ in a detail not shown here. Identical values can stand only once.
Legend:
Trypsin [1] = target: T1, Trypsin (Sus scrofa, UniProt P00761)
Description: (§1) Inhibition of pig pancreatic trypsin after 15 mins

physchem = conditions: octanol/water
Description: (§2) Octanol-water partition coefficient, log P of the compound

[2] = target: Coagulation factor VII/tissue factor (Homo sapiens, UniProt P08709)
Description: Inhibition of amidolytic activity of human tissue factor/human factor 7a

Trypsin [3] = target: T1, Trypsin; remark: listed apart in the source
Description: as §1

[4] = octanol/water
Description: as §2

T1 sequence (P00761 whole entry): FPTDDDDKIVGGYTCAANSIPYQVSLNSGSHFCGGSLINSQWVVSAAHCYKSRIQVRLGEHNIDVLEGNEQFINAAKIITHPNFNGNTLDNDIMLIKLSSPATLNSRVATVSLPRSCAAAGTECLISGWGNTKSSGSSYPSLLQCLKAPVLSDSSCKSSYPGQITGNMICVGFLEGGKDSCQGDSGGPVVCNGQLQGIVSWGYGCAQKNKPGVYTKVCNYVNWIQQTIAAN
Coagulation factor VII/tissue factor, sequence (P08709 61-212 limits assumed): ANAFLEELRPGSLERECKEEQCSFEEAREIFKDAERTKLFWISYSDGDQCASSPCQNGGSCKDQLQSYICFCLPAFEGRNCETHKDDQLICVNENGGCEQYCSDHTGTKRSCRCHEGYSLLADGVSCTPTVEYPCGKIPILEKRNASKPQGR
Coagulation factor VII/tissue factor, sequence (P08709 213-466 limits assumed): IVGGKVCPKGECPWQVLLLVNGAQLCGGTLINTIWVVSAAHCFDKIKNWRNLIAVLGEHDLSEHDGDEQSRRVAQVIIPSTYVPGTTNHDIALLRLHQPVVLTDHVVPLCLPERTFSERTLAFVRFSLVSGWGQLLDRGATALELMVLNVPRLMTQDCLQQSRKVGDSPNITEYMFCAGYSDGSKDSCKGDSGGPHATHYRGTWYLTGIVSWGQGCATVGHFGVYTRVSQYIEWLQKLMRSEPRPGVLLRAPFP
Coagulation factor VII/tissue factor, sequence (P13726 33-295 partner limits assumed): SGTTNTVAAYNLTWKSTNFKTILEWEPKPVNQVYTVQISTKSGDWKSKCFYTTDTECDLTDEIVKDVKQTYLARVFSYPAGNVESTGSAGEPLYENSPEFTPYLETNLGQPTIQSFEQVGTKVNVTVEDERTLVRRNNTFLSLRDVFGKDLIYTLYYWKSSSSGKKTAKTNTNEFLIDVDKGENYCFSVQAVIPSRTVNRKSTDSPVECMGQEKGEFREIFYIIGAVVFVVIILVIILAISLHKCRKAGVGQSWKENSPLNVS

SMILES: CC/C=C\C/C=C\C/C=C\CCCCCCCCCC(=O)O
- IC50 (Trypsin [1]): > 200 µM
- logP (physchem; logP): 3.3
- IC50 [2]: 100 µM

SMILES: CCCCC/C=C\C/C=C\CCCCCCCCCC(=O)O
- IC50 (Trypsin [1]): > 200 µM
- logP (physchem; logP): 2.41
- IC50 [2]: 52 µM

SMILES: CCCCC/C=C\C/C=C\CCCCCCCc1cccc(O)c1C(=O)O
- IC50 (Trypsin [1]): > 200 µM
- logP (physchem; logP): 3.72
- IC50 [2]: 33 µM

SMILES: CCCCC/C=C\C/C=C\C/C=C\C/C=C\CCCC(=O)O [ARACHIDONIC ACID]
- IC50 (Trypsin [1]): > 200 µM
- logP (physchem): 2.9
- IC50 [2]: 105 µM

SMILES: CCCCC/C=C\C/C=C\C/C=C\CCCCCCC(=O)O [DIHOMO-GAMMA-LINOLENIC ACID]
- IC50 (Trypsin [1]): > 200 µM
- IC50 (Trypsin [3]): > 200 µM
- logP (physchem; logP): 3.5
- logP [4]: 3.28
- IC50 [2]: 75 µM and 30 µM

SMILES: CCCCC/C=C\C/C=C\C/C=C\CCCCC(=O)O [GAMOLENIC ACID]
- IC50 (Trypsin [1]): > 200 µM
- logP (physchem; logP): 2.55
- IC50 [2]: 30 µM

SMILES: CCCCCC/C=C\CCCCCCCc1cccc(O)c1C(=O)O [GINGKOLIC ACID]
- IC50 (Trypsin [1]): > 200 µM
- logP (physchem; logP): 3.99
- IC50 [2]: 32 µM

SMILES: CC/C=C\C/C=C\C/C=C\C/C=C\C/C=C\CCCC(=O)O [ICOSAPENT]
- IC50 (Trypsin [1]): > 200 µM
- logP (physchem; logP): 2.48
- IC50 [2]: 78 µM

SMILES: CCCCC/C=C\C/C=C\CCCCCCCC(=O)O [LINOLEIC ACID]
- IC50 (Trypsin [1]): > 200 µM
- logP (physchem; logP): 3
- IC50 [2]: 41 µM

SMILES: CC/C=C\C/C=C\C/C=C\CCCCCCCC(=O)O [LINOLENIC ACID]
- IC50 (Trypsin [1]): > 200 µM
- logP (physchem; logP): 2.51
- IC50 [2]: 30 µM

SMILES: CCCC/C=C\CCCCCCCC(=O)O [MYRISTOLEIC ACID]
- IC50 (Trypsin [1]): > 200 µM
- IC50 [2]: 66 µM

SMILES: CCCCCCCC/C=C\CCCCCCCC(=O)O [OLEIC ACID]
- IC50 (Trypsin [1]): > 200 µM
- logP (physchem; logP): 3.54
- IC50 [2]: 80 µM

SMILES: CCCCCC/C=C\CCCCCCCC(=O)O [PALMITOLEIC ACID]
- IC50 (Trypsin [1]): > 200 µM
- logP (physchem; logP): 2.73
- IC50 [2]: 120 µM

Source: ChEMBL document CHEMBL1151306, “Inhibitory activity of unsaturated fatty acids and anacardic acids toward soluble tissue factor-factor VIIa complex” (J Nat Prod, 1998)
